Experimental data taken from the NIST ThermoML archive (doi:10.1016/j.jct.2006.12.013).
Numbers after ± are expanded uncertainties.

Settings: Liquid

vapor or sublimation pressure (313.15 K) [kPa] | vapor or sublimation pressure (323.15 K) [kPa] | vapor or sublimation pressure (333.15 K) [kPa] | vapor or sublimation pressure (343.15 K) [kPa] | vapor or sublimation pressure (353.15 K) [kPa] | vapor or sublimation pressure (363.15 K) [kPa] | Structure (SMILES)
377 ± 3 | 495 ± 4 | 638 ± 4 | 810 ± 5 | 1012 ± 6 | 1249 ± 8 | CCCC [butane]
909 ± 6 | 1181 ± 7 | 1509 ± 10 | 1898 ± 12 | – | 2901 ± 18 | CC(F)F [1,1-difluoroethane]
